The values below come from US10638757B2, “Formulation systems for antimicrobial glycolipids” (IMD Natural Solutions GmbH, priority 2016, dated 2020).

Data set [1] can be described thus: Screening of additives as formulation stabilizers in combination with a mixture of antimicrobial glycolipids in water based formulations (turbidity, qualitative overview). The procedure: As to identify formulation stabilizer a screening was conducted in which additives typically used in food, cosmetic or medical applications were combined with a mixture of antimicrobial glycolipids in a water based formulation. A rather high concentration of 1000 mg/l for the formulation enhancing agents was used as to not miss potential effects whereas the mixture of antimicrobial glycolipids was applied in typical use concentrations, i.e. 5, 10 and 25 μg/ml.
Portions of about 50 mL each for two beverages. “Gerolsteiner Orangenlimonade” (turbid orange lemonade, de-gassed; cloudy beverage) and “REWE Apfelsaft” (clear apple juice, sterile filtered; clear beverage) as well as for 10 mM citrate buffer is water (pH 3.0), were mixed each with aliquots of a mixture of antimicrobial glycolipids and the respective additives as to establish for each individually screened additive three combinations of concentrations (1000 μg/ml (with few exceptions as listed below) additive with 5, 10 and 25 μg/ml mixture of antimicrobial glycolipids, respectively); three controls with neither adding a mixture of antimicrobial glycolipids nor additive were run in parallel.
The necessary aliquots of a mixture of antimicrobial glycolipids were transferred from an aqueous stock solution containing 1 mg/ml mixture of antimicrobial glycolipids into the nine test solutions prepared for each additive.
The necessary aliquots of additives were transferred directly into the 50 mL portions.
For measurement of the turbidity the turbidity infrared device AL250T-IR from […]® was used. It was measured at three time points: day 0, 3, 7. All test samples were stored and handled at room temperature.

Data set [2] can be described thus: Visual control of compatibility (turbidity, particles, precipitate) of beverages containing mixture of antimicrobial glycolipids with or without formulation stabilizer. The procedure:
All experiments done and reported in duplicate.
Portions of about 50 mL each for the two beverages, “Gerolstetner Orangenlimonade” (turbid orange lemonade, de-gassed; cloudy beverage) and “REWE Apfelsaft” (clear apple juice, sterile filtered; clear beverage), were mixed with aliquots of a mixture of antimicrobial glycolipids and alpha-cyclodextrin as to establish the depicted nine combinations of concentrations (4-2 to 4-4 and 4-6 to 4-11, respectively); two control solutions with neither adding a mixture of antimicrobial glycolipids nor alpha-cyclodextrin were run in parallel (4-1 and 4-5, respectively).
However, for the concentration of 10 μg/ml of mixture of antimicrobial glycolipids three combination with alpha-cyclodextrin, 25 (6-1, 6-2, 6-9, 6-10, 6-17, 6-18), 75 (6-3, 6-4, 6-11, 6-12, 6-19, 6-20) and 100 μg/ml (6-5, 6-6, 6-13, 6-14, 6-21, 6-22) and for the concentration of 25 μg/ml of mixture of antimicrobial glycolipids only 100 μg/ml alpha-cyclodextrin (6-7, 6-8, 6-15, 6-16, 6-23, 6-24) was used all with two test points, respectively.
2×50 mL portion of the four solutions in the Erlenmeyer flasks were poured into clear and sterile polystyrol conical tubes and sealed for investigation of stability and compatibility of such beverages at three different temperatures (6/20/40° C.) each, resulting in four tubes per temperature and beverage. Such 24 tubes were stored for seven days and observed at day 0, 3 and 7 by measurement of turbidity as well as by optical inspection. A control solution without adding any components was run in parallel.
Portions of about 50 mL each for the three beverages, “Gerolsteiner Orangenlimonade” (orange lemonade, de-gassed, cloudy beverage), “Kastell Zitronensprudel” (citrus lemonade, sterile filtered, clear beverage), and “REWE Apfelsaft” (clear apple juice, sterile filtered, clear beverage), were mixed with aliquots of a mixture of antimicrobial glycolipids as to establish the nine test solutions; three control solutions without adding a mixture of antimicrobial glycolipids were ran in parallel: […]

The nature of data set [3]: Comparison of alpha-cyclodextrin with Polysorbate 60: practicability in application in beverages and reliability in use. To be noted: compared with polysorbates. The text has this:
The preferred formulation stabilizers polysorbates and cyclodextrins have been further investigated towards their practicability in application in beverages as well as their reliability in use.

Data set [4] is described as follows: Influence of the additives on the MIC of a mixture of antimicrobial glycolipids (qualitative). The class given is cell-based. The conditions noted are these: additive 1 mg/ml.
Text: In addition, the influence of the additives on the MIC of a mixture of antimicrobial glycolipids is described qualitatively.
[5] abbreviates: additive 1 mg/ml, independent of glycolipid mixture.

“Also recorded” adds a separate entry of the source.

For “polyoxyethylene-(20)-sorbitane monooleate [Polysorbate 80]”, the “Effect of additive itself on water based product” value (shortened to “Effect of additive itself”) in data set [1] (setting [5]) is on record as “Increase of turbidity; also recorded: Not compatible with apple juice”. In the case of `OC[C@H]1O[C@@H]2O[C@H]3[C@H](O)[C@@H](O)[C@@H](O[C@H]4[C@H](O)[C@@H](O)[C@@H](O[C@H]5[C@H](O)[C@@H](O)[C@@H](O[C@H]6[C@H](O)[C@@H](O)[C@@H](O[C@H]7[C@H](O)[C@@H](O)[C@@H](O[C@H]1[C@H](O)[C@H]2O)O[C@@H]7CO)O[C@@H]6CO)O[C@@H]5CO)O[C@@H]4CO)O[C@@H]3CO` [alpha-cyclodextrin], the “alpha-cyclodextrin concentration avoiding lack of compatibility” value in data set [2] (10 μg/ml mixture of antimicrobial glycolipids in apple juice at 4° C.) is 75 µg/mL. Besides, the “alpha-cyclodextrin concentration needed to avoid lack of compatibility” value in data set [2] (10 μg/ml mixture of antimicrobial glycolipids in apple juice at 40° C.) was 100 µg/mL. Also, the “duration of improvement of compatibility” value in data set [2] (alpha-cyclodextrin with 10 μg/ml mixture of antimicrobial glycolipids, apple juice) is recorded as > 28 days. Also, the “overall rating as broadly applicable and reliable formulation stabilizer” value in data set [3] is on record as “superior”.

With “polyoxyethylene-(20)-sorbitane monolaurate [Polysorbate 20]”, the “Effect of additive itself” value in data set [1] (setting [5]) is recorded as “Not compatible with apple juice”. With “polyoxyethylene-(20)-sorbitane monostearate [Polysorbate 60]”, the “Effect of additive itself” value in data set [1] (setting [5]) is reported as “Not compatible with apple juice”. As for `OC[C@H]1O[C@@H]2O[C@H]3[C@H](O)[C@@H](O)[C@@H](O[C@H]4[C@H](O)[C@@H](O)[C@@H](O[C@H]5[C@H](O)[C@@H](O)[C@@H](O[C@H]6[C@H](O)[C@@H](O)[C@@H](O[C@H]7[C@H](O)[C@@H](O)[C@@H](O[C@H]8[C@H](O)[C@@H](O)[C@@H](O[C@H]9[C@H](O)[C@@H](O)[C@@H](O[C@H]1[C@H](O)[C@H]2O)O[C@@H]9CO)O[C@@H]8CO)O[C@@H]7CO)O[C@@H]6CO)O[C@@H]5CO)O[C@@H]4CO)O[C@@H]3CO` [gamma cyclodextrin], the “beneficial effects as formulation stabilizer for antimicrobial glycolipids” value in data set [2] was “less pronounced beneficial effects”. For `O=C(O)CN(CCN(CC(=O)O)CC(=O)O)CC(=O)O` [EDTA], the “Effect on MIC” value in data set [4] is reported as “Impr”. Regarding Sorbitan monostearate, the “Effect of additive itself” value in data set [1] (additive 0.1 mg/ml) is recorded as “Weakly soluble”.
